From patent publication US10618869B2, “Oligo-benzamide compounds and their use” (The Board of Regents of the University of Texas System, priority 2010, dated 2020)
“Also recorded” adds a separate entry of the source.

Assays:
[1] = Storage stability of D2 in DMSO; format: physicochemical; conditions: room temperature and −70° C., storage 60 days
[2] = tested on: AR-PELP1 interaction; assay: DHT-induced AR-PELP1 co-immunoprecipitation in PCa cells; format: cell-based
From the text: FIG. 6. Effect of D1 and D2 on DHT induced AR-PELP1 co-immunoprecipitation in LNCaP cells.
FIGS. 7A-C. Effect of D1 and D2 on DHT induced AR-PELP1 co-immunoprecipitation in LNCaP cells. (FIG. 7A) Model depicts the proposed role for D2 in disrupting the interaction between AR and NR Box proteins such as Hsp27 and PELP1. (FIG. 7B) Effect of increasing concentration of D2 on complex formation between AR and NR Box proteins such as Hsp27 and PELP1, as shown for immunoprecipitation with AR (top panel) and with PELP1 (bottom panel). Input lysates are shown at the bottom. (FIG. 7C) Rescue of D2-induced suppression of AR-PELP1 complex formation: Following transient transfection with increasing concentrations of AR (left panel) or increasing concentration of PELP1 (right panel), LnCAP cells were treated with 10 nM DHT for 24 hours following preincubation with D2 or control D1. Extracts were immunoprecipitated with AR and immunoblotted with PELP1, AR or importin.
FIG. 6 provides confirmation that D2 was directed against the LXXLL (SEQ ID NO: 1) motif and was capable of blocking AR and PELP1 interaction in vivo was obtained from coimmunoprecipitation experiments in LnCaP PCa cells.
D2 was also able to block the DHT- and E2-induced interaction of AR with PELP1 in LAPC4, C4-2, VCAP and CWR22v1 cells. […] The ability of D2 to block AR-PELP1 interaction could be overcome by transient over-expression of PELP1 in a dose-dependent manner.

[3] = molecular target: T1, interaction between AR and hsp90 (Homo sapiens, UniProt P10275); assay: AR-hsp90 interaction (co-immunoprecipitation); format: cell-based; conditions: hsp90 lacks a LXXLL motif
T1 construct: endogenous in cells; host or cells: prostate cancer cells
T1 sequence (P10275 1-920): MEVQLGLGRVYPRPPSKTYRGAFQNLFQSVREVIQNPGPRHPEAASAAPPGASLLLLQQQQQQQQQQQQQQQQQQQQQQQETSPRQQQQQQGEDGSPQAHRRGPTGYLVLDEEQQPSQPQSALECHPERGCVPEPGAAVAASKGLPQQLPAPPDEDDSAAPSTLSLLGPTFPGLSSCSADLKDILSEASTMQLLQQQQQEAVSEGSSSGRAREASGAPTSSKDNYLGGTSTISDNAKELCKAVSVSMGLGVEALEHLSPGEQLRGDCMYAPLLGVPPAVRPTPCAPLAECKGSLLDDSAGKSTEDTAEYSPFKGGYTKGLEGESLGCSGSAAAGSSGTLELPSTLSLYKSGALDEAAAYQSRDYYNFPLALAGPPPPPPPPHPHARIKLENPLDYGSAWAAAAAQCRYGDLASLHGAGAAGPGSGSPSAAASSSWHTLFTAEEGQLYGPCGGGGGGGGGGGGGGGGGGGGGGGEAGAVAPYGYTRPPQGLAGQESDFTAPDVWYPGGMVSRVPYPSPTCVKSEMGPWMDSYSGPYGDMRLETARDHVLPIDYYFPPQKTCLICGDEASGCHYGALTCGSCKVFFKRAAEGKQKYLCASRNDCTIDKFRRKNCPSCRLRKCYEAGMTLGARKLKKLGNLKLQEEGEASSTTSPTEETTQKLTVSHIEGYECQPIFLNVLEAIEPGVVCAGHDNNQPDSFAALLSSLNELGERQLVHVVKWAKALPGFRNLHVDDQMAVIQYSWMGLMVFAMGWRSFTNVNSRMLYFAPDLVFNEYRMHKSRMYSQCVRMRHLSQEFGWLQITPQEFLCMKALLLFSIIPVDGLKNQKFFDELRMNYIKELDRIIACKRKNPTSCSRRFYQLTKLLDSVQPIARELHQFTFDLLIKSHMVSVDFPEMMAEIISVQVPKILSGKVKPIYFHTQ

[4] = tested on: PCa cells; assay: EGF or LPA-induced proliferation of PCa cells (MTT assay); format: cell-based; conditions: peptidomimetic added 2 hours prior
Experimental: FIG. 11. […] D2 does block DHT-induced proliferation of prostate cancer cells.
In this experiment, cells were plated (2-10×10^3/well) in 96 well plates and subjected to androgen deprivation for 48 hours with phenol-red free RPMI and 1% charcoal stripped fetal bovine serum (CSF). Cells were then treated with either ethanol, EGF or DHT as a positive control for 48 hours. Peptidomimetics were added 2 hours prior to treatment. Cell proliferation was measured using the MTT colorimetric assay.

[5] = tested on: prostate cancer xenografts; assay: Subcutaneous prostate cancer xenografts; format: in vivo, nude mice
Experimental: FIGS. 10A-E. D2 blocks proliferation of prostate cancer cells in vitro and in vivo (a) Effect of pretreatment with 100 nM of D1 and D2 on DHT-induced proliferation in multiple prostate cancer cell lines in MTT assay. Numbers are normalized to a baseline of 100, which represents the untreated rate of proliferation. (b) Effect of pretreatment with 100 nM of D1 and D2 on DHT-induced proliferation in LNCaPcells on a Cyquant assay. (c) Dose dependent curve of D2 on proliferation of LAPC4 cells. (d) Rescue of DHT induced proliferation by overexpression of PELP1 following suppression of DHT induced proliferation with 100 nM of D2. (e). Effect of direct intratumoral injections of D1 and D2 on the proliferation of prostate cancer xenografts in animal models: Following establishment of subcutaneous xenografts in animal models, daily direct intratumoral injections of D1 and D2 were performed. Bioluminesence imaging was used to track the growth of the tumors and the effect of D1 and D2 quantitated as shown in the graph.
They have shown that this synthetic peptidomimetic D2 is capable of blocking AR-PELP-1 interaction, nuclear translocation of AR, AR mediated genomic signaling as well as DHT-mediated proliferation of prostate cancer cells in vitro. The IC50 of D2 appears to be around 40 nM. […]

## COC(=O)c1ccc(NC(=O)c2ccc([N+](=O)[O-])c(OCC(C)C)c2)c(OCC(C)C)c1 [D2]
[1]
  stability in DMSO: stable in DMSO
[2]
  stability of AR or PELP1: did not adversely affect
[2]; LAPC4, C4-2, VCAP and CWR22v1 cells
  DHT- and E2-induced interaction of AR with PELP1: able to block
[2]; LnCaP cells, preincubation with 100 nM
  DHT-induced physical interaction of AR and PELP1: blocked
[2]; increasing concentration, FIG. 7
  AR-PELP1 interaction, dose dependence: blocked AR-PELP1 interaction in a dose-dependent manner
[3]
  interaction between AR and hsp90: not able to affect
[4]
  EGF or LPA-induced proliferation of PCa cells: no effect; also recorded: does not affect
[5]; nude mice, intratumoral or intraperitoneal administration
  growth of prostate cancer cells implanted subcutaneously: significantly abrogate the growth
[5]; protein extracts of tumors after daily intratumoral injections
  AR-PELP1 complex formation in xenograft tumors: biologically active in blocking AR-PELP1 interaction; also recorded: able to block
